Values of other authors, collected in patent US20040058975A1, “Method for fertility control” (Schering AG, priority 2002, published 2004).
Like-named read-outs stand apart in the source and are kept apart here.

Experiments:
[1] = tested on: ovulation; settings: several mammalian species including rats, rabbits, sheep
[2] = tested on: ovulation; settings: monkeys
[3] = tested on: ovulation; settings: women
[4] = biological target: COX-2 (Homo sapiens, UniProt P35354); settings: humans
[5] = tested on: ovulation; settings: COX-2 deficient mice

COX-2, sequence (P35354 18-604): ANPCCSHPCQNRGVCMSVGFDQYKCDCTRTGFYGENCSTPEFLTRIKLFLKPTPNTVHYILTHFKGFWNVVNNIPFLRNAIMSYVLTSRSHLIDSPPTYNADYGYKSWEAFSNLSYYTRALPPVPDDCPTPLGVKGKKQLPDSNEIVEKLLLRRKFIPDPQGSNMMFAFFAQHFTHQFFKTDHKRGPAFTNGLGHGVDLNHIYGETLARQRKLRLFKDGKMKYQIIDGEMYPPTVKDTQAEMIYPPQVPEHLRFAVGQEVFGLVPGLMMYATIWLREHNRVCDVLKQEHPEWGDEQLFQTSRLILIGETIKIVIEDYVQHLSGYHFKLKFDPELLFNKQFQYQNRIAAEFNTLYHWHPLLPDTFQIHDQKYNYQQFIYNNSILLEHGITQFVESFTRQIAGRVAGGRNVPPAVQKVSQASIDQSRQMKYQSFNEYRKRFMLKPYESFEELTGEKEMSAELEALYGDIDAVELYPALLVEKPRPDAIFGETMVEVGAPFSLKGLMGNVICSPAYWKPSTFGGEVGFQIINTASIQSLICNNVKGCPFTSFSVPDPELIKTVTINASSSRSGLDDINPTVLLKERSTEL

For `CC(=O)Oc1ccccc1C(=O)O` [Aspirin], the ovulation [1] is given as “may prevent ovulation”.
For `COc1ccc2c(c1)c(CC(=O)O)c(C)n2C(=O)c1ccc(Cl)cc1` [Indomethacin], the ovulation [1] is given as “may prevent ovulation”, the ovulation [2] is given as “block ovulation” and the ovulation [3] is given as “block ovulation”.
For `COc1ccc2cc([C@H](C)C(=O)O)ccc2c1` [Naproxen], the ovulation [1] is listed as “may prevent ovulation”.
In the case of `CS(=O)(=O)c1ccc(C2=C(c3ccccc3)C(=O)OC2)cc1` [Rofecoxib, 4-(4-mesylphenyl)-3-phenylfuran-2(5H)-one], the follicular rupture [4] is listed as “delayed follicular rupture” and the peripheral hormonal cycles [4] is listed as “without affecting peripheral hormonal cycles”.
In the case of `CCCCC[C@H](O)/C=C/[C@H]1[C@H](O)CC(=O)[C@@H]1C/C=C\CCCC(=O)O` [prostaglandin E2], the anovulation [5] is listed as “restored”.
In the case of Interleukin-1β: Interleukin-1β, the anovulation [5] is given as “restored”.
